The results in this text go back to patent publication US6177438A, “Morphinan derivatives and pharmaceutical use thereof” (priority 1993, dated 2001).

SMILES strings stand for the structures. Where a name gives a salt, the structure may show the parent alone. Read-outs that look alike come from different tables or passages of the source.

Data set [1] relates to acetic acid-induced writhing in ddy mice. In words: animal or person. As to conditions: s.c. 15 minutes before acetic acid. It counts as in vivo, 5 week old ddy mice. On the procedure: 5 week old ddy mice were used in this test. After intraperitoneal administration of 0.1 ml of 0.6% aqueous acetic acid per 10 g of body weight, the number of writhing reactions that occurred in 10 minutes starting 10 minutes after administration was evaluated for the indicator. The test drug was administered subcutaneously into the backs of the animals 15 minutes before administration of acetic acid.

For data set [2], the system named is cultured nerve cells (cerebral cortex). Kind of data set: cells. The following applies: Rattus norvegicus, Cerebral cortex neuron, 24 h, read-out: ED50 (protection against glutamic acid toxicity).
For data set [3] the test system is unchanged. The following applies: 10 mM glutamic acid, 24 hours.
Data set [4] can be described thus: Diuretic action (urine output for 5 hours after physiological saline loading in rats). In kind it is in vivo, male Wistar rats. The following applies: Rattus norvegicus, sc, 5 hours after saline 20 ml/kg p.o.; for ED (200% urine output): dose giving urine output of 200 (non-dosed group = 100); for ED (500% urine output): dose giving urine output of 500 (non-dosed group = 100). The method in brief: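 Male Wistar rats (7-8 weeks), water withheld 1 h, bladder emptied, drug given subcutaneously; 30 min later 20 ml/kg saline orally. Urine collected 5 h after saline loading in metabolic cages; ED200 and ED500 are doses giving urine output of 200 and 500 relative to non-dosed group at 100.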

Data set [5] relates to extracted mouse vas deferens preparation. In words: Opioid activity test using an extracted mouse vas deferens preparation (suppression of electrically induced contractions). Set-up: species or system male ddy mouse. As to conditions: electrical stimulus 0.1 Hz, 37° C. An outline of the steps:
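Male ddY mouse vas deferens in Krebs-Henseleit at 37° C, 5% CO2/95% O2, field-stimulated at 0.1 Hz, 5.0 ms; isometric contractions recorded. After adding naloxone, NTI or norBNI, test compound was added cumulatively after ~20 min; Ke derived from the difference in agonist efficacies.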

In another data set the target is T1, κ receptor (Mus musculus, UniProt P33534).
T1 construct: from tissue; host or cells: mouse (male ddy) vas deferens
T1 sequence (P33534 whole entry): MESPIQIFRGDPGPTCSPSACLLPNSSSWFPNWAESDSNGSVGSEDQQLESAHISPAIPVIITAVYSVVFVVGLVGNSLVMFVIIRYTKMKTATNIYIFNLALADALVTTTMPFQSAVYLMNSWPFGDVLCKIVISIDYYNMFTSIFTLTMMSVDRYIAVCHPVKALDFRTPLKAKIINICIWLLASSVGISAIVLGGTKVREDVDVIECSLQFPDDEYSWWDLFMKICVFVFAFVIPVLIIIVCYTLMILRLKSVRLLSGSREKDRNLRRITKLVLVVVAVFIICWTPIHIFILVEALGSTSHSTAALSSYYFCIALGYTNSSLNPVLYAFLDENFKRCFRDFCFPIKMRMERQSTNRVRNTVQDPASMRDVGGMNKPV
Kind of data set: Opioid activity test using an extracted mouse vas deferens preparation, Ke with norBNI. The arrangement: species or system male ddy mouse. As to conditions: for receptor selectivity of agonist (κ): in words; for Ke, norBNI: κ, norBNI added.

The next data set concerns the target T2, δ receptor (Mus musculus, UniProt P32300).
T2 construct: The vas deferens extracted from the animal was suspended in a Magnus tube; from tissue; host or cells: mouse (male ddy) vas deferens
Set-up: species or system male ddy mouse. The following applies: mouse vas deferens, δ, NTI added.

The next data set has as its target T3, μ receptor (Mus musculus, UniProt P42866).
T3 construct: naloxone as mu antagonist (printed 'agonist')
Kind of data set: Opioid activity test using an extracted mouse vas deferens preparation, Ke with naloxone. Set-up: species or system male ddy mouse. The following applies: naloxone added.

The mark [6] stands for this setting: Mus musculus, sc, read-out: ED50.

T2 sequence (P32300 whole entry): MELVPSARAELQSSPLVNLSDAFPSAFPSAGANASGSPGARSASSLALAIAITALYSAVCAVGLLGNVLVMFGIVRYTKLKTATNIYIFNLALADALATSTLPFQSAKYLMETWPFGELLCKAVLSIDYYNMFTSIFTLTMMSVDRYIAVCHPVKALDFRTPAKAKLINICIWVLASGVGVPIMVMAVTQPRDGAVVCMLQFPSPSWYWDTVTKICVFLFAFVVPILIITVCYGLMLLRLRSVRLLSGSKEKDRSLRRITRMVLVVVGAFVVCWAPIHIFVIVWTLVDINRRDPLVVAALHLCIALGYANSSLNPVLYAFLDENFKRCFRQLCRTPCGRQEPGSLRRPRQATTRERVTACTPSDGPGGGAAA
T3 sequence (P42866 whole entry): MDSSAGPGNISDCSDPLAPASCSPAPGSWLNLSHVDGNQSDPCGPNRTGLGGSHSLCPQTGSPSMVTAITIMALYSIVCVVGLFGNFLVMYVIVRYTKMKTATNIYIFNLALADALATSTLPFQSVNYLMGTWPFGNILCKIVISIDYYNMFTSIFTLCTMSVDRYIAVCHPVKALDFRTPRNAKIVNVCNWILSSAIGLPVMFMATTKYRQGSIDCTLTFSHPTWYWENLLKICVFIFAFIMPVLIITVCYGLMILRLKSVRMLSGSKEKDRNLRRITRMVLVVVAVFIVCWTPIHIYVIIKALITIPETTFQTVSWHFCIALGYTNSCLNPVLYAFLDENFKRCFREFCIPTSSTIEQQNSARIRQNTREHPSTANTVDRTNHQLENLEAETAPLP

By ED50 is commonly meant the dose at which the effect has come halfway, by size or by number of responders. As for `CN(C(=O)Cc1ccccc1)[C@H]1CC[C@@]2(O)[C@H]3Cc4ccc(O)c5c4[C@@]2(CCN3CC2CC2)[C@H]1O5` [Compound 23, 17-cyclopropylmethyl-3,14β-dihydroxy-4,5α-epoxy-6α-(N-methylphenylacetamido)morphinan.cndot.hydrochloride], the ED50 in data set [1] (setting [6]) stood at 0.67 mg/kg. Further, the EC50 in data set [2] amounted to 1610 nM. Moreover, the “Protective action against cytotoxicity caused by glutamic acid (in words)” value (“Protective action” for short) in data set [3] is reported as “clearly demonstrated action that protects nerve cells from cytotoxicity caused by glutamic acid”.
Taken in the same sequence, the figures for `C[C@H](C(=O)N(C)[C@H]1CC[C@@]2(O)[C@H]3Cc4ccc(O)c5c4[C@@]2(CCN3CC2CC2)[C@H]1O5)c1ccccc1` [Compound 32, 17-cyclopropylmethyl-4,5α-epoxy-3,14β-dihydroxy-6α-[(S)-N-methyl-2-phenylpropionamido]morphinan.cndot.tartrate] were 0.29 mg/kg, 2140 nM and “clearly demonstrated action that protects nerve cells from cytotoxicity caused by glutamic acid”.
For `CN(C(=O)C1CCCCC1)[C@H]1CC[C@@]2(O)[C@H]3Cc4ccc(O)c5c4[C@@]2(CCN3CC2CC2)[C@H]1O5` [Compound 33, 17-cyclopropylmethyl-3,14β-dihydroxy-4,5α-epoxy-6α-(N-methylcyclohexylcarboxyamido)morphinan.cndot.hydrochloride], in data set [1] (setting [6]), the 50% effective dose (ED50) amounted to 0.08 mg/kg. Further, the EC50 in data set [2] came out at 3530 nM. Besides, the “Protective action” value in data set [3] was “clearly demonstrated action that protects nerve cells from cytotoxicity caused by glutamic acid”.
Take `CN(C(=O)c1ccccc1)[C@H]1CC[C@@]2(O)[C@H]3Cc4ccc(O)c5c4[C@@]2(CCN3CC2CC2)[C@H]1O5` [Compound 34, 17-cyclopropylmethyl-3,14β-dihydroxy-4,5α-epoxy-6α-(N-methylbenzamido)morphinan.cndot.hydrochloride]: the ED50 in data set [1] (setting [6]) amounted to 0.21 mg/kg. For the same compound, in data set [2], the EC50 came to 180 nM. In data set [3], the “Protective action” value is “clearly demonstrated action that protects nerve cells from cytotoxicity caused by glutamic acid”.
In data set [4], `CN(C(=O)CCCc1ccccc1)[C@H]1CC[C@@]2(O)[C@H]3Cc4ccc(O)c5c4[C@@]2(CCN3CC2CC2)[C@H]1O5` [Compound 35, 17-cyclopropylmethyl-3,14β-dihydroxy-4,5α-epoxy-6α-(N-methyl-4-phenylbutyramido)morphinan.cndot.hydrochloride] gave an ED (200% urine output) of 0.0245 mg/kg and an ED (500% urine output) of 5.19 mg/kg. Besides, in data set [1] (setting [6]), the ED50 was determined as 0.026 mg/kg. In addition, the EC50 in data set [2] is 640 nM. In data set [3], the “Protective action” value was “clearly demonstrated action that protects nerve cells from cytotoxicity caused by glutamic acid”.
For orientation: IC50 means the point on the concentration scale where inhibition reaches its midpoint. Higher therefore signals weaker potency. In turn, `CN(C(=O)Cc1ccc(Cl)c(Cl)c1)[C@@H]1CC[C@@]2(O)[C@H]3Cc4ccc(O)c5c4[C@@]2(CCN3CC2CC2)[C@H]1O5` [Compound 53, 17-cyclopropylmethyl-4,5α-epoxy-3,14β-dihydroxy-6β-(N-methyl-3,4-dichlorophenylacetoamido)morphinan.cndot.hydrochloride] showed a 50% inhibitory concentration (IC50) in data set [5] of 10.3 nM. Besides, at κ receptor, the “receptor selectivity of agonist (κ)” value was “selective agonists for κ receptors” and the “Ke, norBNI” value was 0.21 nM. Further, in data set [4], the ED (200% urine output) amounted to 0.135 mg/kg and the ED (500% urine output) amounted to 0.658 mg/kg. Further, in data set [1] (setting [6]), the ED50 stood at 0.46 mg/kg. For the same compound, in data set [2], the EC50 came out at 2510 nM. At δ receptor, the “Ke, NTI” value is 1676 nM. Also, the “Protective action” value in data set [3] is “clearly demonstrated action that protects nerve cells from cytotoxicity caused by glutamic acid”.
In data set [4], `CN(C(=O)OCc1ccccc1)[C@@H]1CC[C@@]2(O)[C@H]3Cc4ccc(O)c5c4[C@@]2(CCN3CC2CC2)[C@H]1O5` [Compound 56, 17-cyclopropylmethyl-3,14β-dihydroxy-4,5α-epoxy-6β-(N-methylbenzyloxycarbamido)morphinan.cndot.hydrochloride] returned an ED (200% urine output) of 0.0028 mg/kg and an ED (500% urine output) of 0.0518 mg/kg. Also, in data set [1] (setting [6]), the ED50 worked out at 0.00802 mg/kg. In data set [2], the EC50 came out at 5230 nM. Further, the “Protective action” value in data set [3] was “clearly demonstrated action that protects nerve cells from cytotoxicity caused by glutamic acid”.
The compound `CN(C(=O)CCc1ccccc1)[C@@H]1CC[C@@]2(O)[C@H]3Cc4ccc(O)c5c4[C@@]2(CCN3CC2CC2)[C@H]1O5` [Compound 57, 17-cyclopropylmethyl-3,14β-dihydroxy-4,5α-epoxy-6β-(N-methyl-3-phenylpropionamido)morphinan.cndot.hydrochloride] showed an IC50 in data set [5] of 0.0254 nM. In addition, on κ receptor, the “receptor selectivity of agonist (κ)” value is on record as “selective agonists for κ receptors” and the “Ke, norBNI” value came to 0.0124 nM. In data set [4], the ED (200% urine output) turned out to be 0.0424 mg/kg and the ED (500% urine output) came out at 1.26 mg/kg. Besides, in data set [1] (setting [6]), the ED50 came to 0.04 mg/kg. Moreover, the EC50 in data set [2] was 15300 nM. The “Ke, NTI” value at δ receptor was 747 nM. For the same compound, the “Protective action” value in data set [3] is “clearly demonstrated action that protects nerve cells from cytotoxicity caused by glutamic acid”.
In the case of `CN(C(=O)COc1ccccc1)[C@@H]1CC[C@@]2(O)[C@H]3Cc4ccc(O)c5c4[C@@]2(CCN3CC2CC2)[C@H]1O5` [Compound 58, 17-cyclopropylmethyl-3,14β-dihydroxy-4,5α-epoxy-6β-(N-methylphenoxyacetamido)morphinan.cndot.tartrate], the ED50 in data set [1] (setting [6]) worked out at 0.19 mg/kg. Further, in data set [2], the EC50 is 16700 nM. The “Protective action” value in data set [3] is “clearly demonstrated action that protects nerve cells from cytotoxicity caused by glutamic acid”.
For the compound `CN(C(=O)/C=C/c1ccccc1)[C@@H]1CC[C@@]2(O)[C@H]3Cc4ccc(O)c5c4[C@@]2(CCN3CC2CC2)[C@H]1O5` [Compound 99, 17-cyclopropylmethyl-3,14β-dihydroxy-4,5α-epoxy-6β-(N-methylcinnararido)morphinan.cndot.hydrochloride], the IC50 in data set [5] worked out at 0.674 nM. On κ receptor, the “receptor selectivity of agonist (κ)” value is “selective agonists for κ receptors” and the “Ke, norBNI” value was found to be 0.652 nM. In addition, in data set [4], the ED (200% urine output) came out at 0.0011 mg/kg and the ED (500% urine output) was determined as 0.0309 mg/kg. In data set [1], this compound gave an ED50 of 0.0018 mg/kg. In data set [2], the EC50 came out at 15400 nM. Besides, the “Ke, Naloxone” value at μ receptor turned out to be 94.5 nM. Also, the “Protective action” value in data set [3] is listed as “clearly demonstrated action that protects nerve cells from cytotoxicity caused by glutamic acid”.
Turning to `CN(C(=O)Cc1cccc(C(F)(F)F)c1)[C@H]1CC[C@@]2(O)[C@H]3Cc4ccc(O)c5c4[C@@]2(CCN3CC2CC2)[C@H]1O5` [Compound 108, 17-cyclopropylmethyl-3,14β-dihydroxy-4,5α-epoxy-6α-(N-methyl-3-trifluoromethylphenylacetamido)morphinan.cndot.hydrochloride], in data set [4], the ED (200% urine output) worked out at 0.021 mg/kg and the ED (500% urine output) worked out at 5.11 mg/kg. Besides, the ED50 in data set [1] (setting [6]) is 0.0064 mg/kg. For the same compound, the EC50 in data set [2] was determined as 250 nM. The “Protective action” value in data set [3] is recorded as “clearly demonstrated action that protects nerve cells from cytotoxicity caused by glutamic acid”.
In the case of `CN(CCc1ccc(Cl)c(Cl)c1)[C@H]1CC[C@@]2(O)[C@H]3Cc4ccc(O)c5c4[C@@]2(CCN3CC2CC2)[C@H]1O5` [Compound 135, 17-Cyclopropylmethyl-3,14β-dihydroxy-4,5α-epoxy-6α-[N-methyl-N-2-(3,4-dichlorophenyl)ethylamino]morphinan.cndot.1.8 hydrochloride], in data set [2], the EC50 amounted to 290 nM. In addition, in data set [3], the “Protective action” value is recorded as “clearly demonstrated action that protects nerve cells from cytotoxicity caused by glutamic acid”.
`CN(CCc1ccc(Cl)c(Cl)c1)[C@@H]1CC[C@@]2(O)[C@H]3Cc4ccc(O)c5c4[C@@]2(CCN3CC2CC2)[C@H]1O5` [Compound 136, 17-Cyclopropylmethyl-3,14β-dihydroxy-4,5α-epoxy-6β-[N-methyl-N-2-(3,4-dichlorophenyl)ethylamino]morphinan.cndot.1.9 hydrochloride]: the EC50 in data set [2] was 640 nM. In data set [3], the “Protective action” value is listed as “clearly demonstrated action that protects nerve cells from cytotoxicity caused by glutamic acid”.
